“Also recorded” adds a separate entry of the source. Where a SMILES comes first, the peptide text is derived from it.
Assays:
[1] = tested on: Staphylococcus aureus ATCC 29213; format: cell-based; settings: Table 3; wild-type Staphylococcus aureus ATCC 29213; minimum of three independent experiments
Protocol: Twenty-one putative AMP sequences identified using the rAMPage pipeline were validated through a minimum of three AST experiments performed independently on separate days. In these tests, the AMP activity was assessed using two metrics: minimum inhibitory concentration and minimum bactericidal concentration (MIC and MBC, respectively). MIC and MBC values were determined using procedures outlined by the Clinical and Laboratory Standards Institute (CLSI), with the recommended adaptations for the testing of cationic AMPs described previously. “Wild-type” strains of Escherichia coli (E. coli 25922) and Staphylococcus aureus (S. aureus 29213) were purchased from the American Type Culture Collection (ATCC; Manassas, VA, USA) and were used for screening of antimicrobial activity. Briefly, putative AMPs were synthesized by Genscript (Piscataway, NJ, USA) and received in lyophilized format. […] This suspension was measured and adjusted to achieve an optical density of 0.08-0.1, equivalent to a 0.5 McFarland standard (1-2×10^8 cfu/mL). […]

E. coli ATCC 25922 = format: cell-based, Escherichia coli
How it was run: (§1)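 MIC taken as lowest peptide level showing no visible growth after 20-24 h at 37° C. Twofold series 128-0.5 μg/mL in Mueller-Hinton broth, polypropylene plates, final inoculum 2-8×10^5 cfu/mL, per CLSI with cationic-peptide adaptations.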

[2] = tested on: Salmonella enterica serovar Enteritidis (human clinical isolate); format: cell-based; settings: Table 14, second value of the cell; three independent experiments; highest concentration tested 128
How it was run: as §1

S. aureus ATCC 29213 = format: cell-based, Staphylococcus aureus; settings: Table 14, third value of the cell; three independent experiments; highest concentration tested 128
How it was run: as §1

[3] = alamarBlue cell viability assay (cytotoxicity); format: cell-based, human; settings: human, HEK293 cells, at 128 μg/mL
Protocol: (§2) The human embryonic kidney cell line HEK293 and the corresponding growth media and supplements were purchased from the ATCC. The cells were maintained in Eagle's Minimum Essential Medium (EMEM) supplemented with 10% fetal bovine serum (FBS) and 1% Penicillin-Streptomycin solution and grown in a 5% CO2 incubator at 37° C. […] Cells were incubated overnight to allow them to adhere. […] TX-100 was diluted to 2% in UltraPure deionized water and added as a positive control. Complete growth medium was added to the peptides and TX-100 containing wells. Spent growth medium of wells with adhered cells was replaced with the contents of wells containing serially diluted peptides or TX-100. Cells were incubated for four hours at 37° C. in 5% CO2 incubator. Growth medium containing peptides or TX-100 was replaced with fresh growth medium containing 10% (v/v) alamarBlue (Bio-Rad Laboratories, Hercules, CA, USA) and incubated for 20 h. Fluorescence was measured at excitation of 540 nm and emission of 590 nm in a Cytation 5 plate reader (Agilent BioTek, Winooski, VT, USA) and results recorded and analyzed with Gen5 software (Agilent BioTek, Winooski, VT, USA). The average fluorescence reads of TX-100 and growth media only wells were used to calculate 0% and 100% cell viability, respectively. The percentage of viable cells at each peptide concentration was determined by Formula 1: […]

HEK293 cells = experiment: alamarBlue cell viability assay (cytotoxicity); format: cell-based, human; settings: concentrations up to 128 μg/mL
Protocol: as §2

porcine red blood cells = experiment: Hemolysis assay (HC50), Example 2; settings: up to 128 μg/mL
Protocol: Peptides were evaluated for toxicity using three independent hemolysis experiments. Whole blood from healthy donor pigs, supplemented with Na Citrate, was purchased from Lampire Biological Laboratories (Pipersville, PA, USA). Red blood cells (RBCs) were washed and isolated by three centrifugation cycles using Roswell Park Memorial Institute medium (RPMI; Thermo-Fisher Scientific) to create a 1% (v/v) RBC solution. […] Following a minimum 30 min incubation at 37° C., plates were centrifuged and % volume from each supernatant was transferred to a new 96-well plate. The absorbance of these wells was measured at 415 nm. To quantify hemolytic activity and determine the AMP concentration that lyses 50% of the RBCs (HC50), absorbance reading from wells containing RBCs treated with 11 μL of a 2% TritonX-100 detergent solution (TX-100) or RPMI (AMP solvent-only) were used to define 100% and 0% hemolysis, respectively. All centrifugation steps were performed at 500× g for five minutes in an Allegra-6R centrifuge (Beckman Coulter, Brea, CA, USA).

In the case of `CC[C@H](C)[C@H](NC(=O)[C@@H](N)CCCCN)C(=O)N[C@@H](CCCCN)C(=O)N[C@H](C(=O)N1CCC[C@H]1C(=O)N[C@@H](Cc1c[nH]c2ccccc12)C(=O)NCC(=O)N[C@@H](CCCCN)C(=O)N[C@H](C(=O)N[C@@H](CCCCN)C(=O)N[C@@H](CC(=O)O)C(=O)N[C@@H](Cc1ccccc1)C(=O)N[C@@H](CC(C)C)C(=O)N[C@H](C(=O)NCC(=O)NCC(=O)N[C@@H](CCSC)C(=O)N[C@@H](CCCCN)C(=O)N[C@@H](C)C(=O)N[C@H](C(=O)NCC(=O)N[C@@H](CCCCN)C(=O)N[C@@H](CCCCN)C(=O)O)C(C)C)C(C)C)C(C)C)[C@@H](C)CC` [TeBi1] (H-KIKIPWGKVKDFLVGGMKAVGKK-OH), the “MIC* (μg/mL) S. aureus” value [1] is reported as 2 to 8 µg/mL, the “MIC against E. coli” value (E. coli ATCC 25922) is reported as 1 to 2 µg/mL and the “MIC (ug/mL) E. coli” value (E. coli ATCC 25922; Table 14, first value of the cell, three independent experiments, highest concentration tested 128) is reported as 1 to 2 µg/mL. The “MIC (ug/mL) S. Enteritidis” value [2] was 4 to 8 µg/mL, the “MIC (ug/mL) S. aureus” value (S. aureus ATCC 29213) was 4 to 8 µg/mL and the viability at 4 h, 128 µg/mL [3] was 40%. For the same molecule, the “cytotoxicity” value (HEK293 cells) was “low or no cytotoxicity at lower concentrations; also recorded: high levels of cytotoxicity at concentrations higher than their MICs” and the “hemolytic activity” value (porcine red blood cells) was “not hemolytic at the concentrations tested”.
